The values that follow come from PubChem BioAssay AID1259407 (Chemical Carcinogenesis Research Information System (CCRIS), 2018).

Active and inactive are the calls of the source. The rule behind the calls is not given here.

This data set has as its system CCRIS mutagenicity, Ames/micronucleus/aberration tests. As to the kind of experiment: CCRIS mutagenicity studies.
Where [1] appears, read: Test System: AMES SALMONELLA TYPHIMURIUM, Strain/Indicator: TA98, Metabolic Activation: NONE, Method: STANDARD PLATE.
Where [2] appears, read: Test System: AMES SALMONELLA TYPHIMURIUM, Strain/Indicator: TA100, Metabolic Activation: NONE, Method: STANDARD PLATE.
Where [3] appears, read: Test System: AMES SALMONELLA TYPHIMURIUM, Strain/Indicator: TA100, Metabolic Activation: RAT, LIVER, S-9, AROCLOR 1254, Method: STANDARD PLATE.
The mark [4] stands for this setting: Test System: AMES SALMONELLA TYPHIMURIUM, Strain/Indicator: TA1535, Metabolic Activation: NONE, Method: STANDARD PLATE.

As for `C1OC1C1CO1` (stereo unspecified), the mutagenic call is, setting by setting: (End Point: IN VITRO CHROMOSOMAL ABERRATIONS, Test System: HUMAN PERIPHERAL LYMPHOCYTES, Metabolic Activation: NONE, Method: FISH (DUAL COLOR FOR CHROMOSOMES 7, 8, 12 AND X)) “active; positive (hyperdiploidy of chromosomes 12 and x)”; (End Point: IN VITRO MICRONUCLEUS, Test System: HUMAN PERIPHERAL LYMPHOCYTES, Metabolic Activation: NONE) “active; positive”; under setting [1], “active; positive”; under setting [2], “active; positive”; under setting [3], “active; positive”; (Test System: AMES SALMONELLA TYPHIMURIUM, Strain/Indicator: TA102, Metabolic Activation: NONE, Method: STANDARD PLATE) “active; positive”. Also, the mutagenic call is, setting by setting: under setting [4], “active; positive”; (Test System: AMES SALMONELLA TYPHIMURIUM, Strain/Indicator: TA7004, Metabolic Activation: NONE, Method: STANDARD PLATE) “inactive; negative”; (Test System: AMES SALMONELLA TYPHIMURIUM, Strain/Indicator: TA7005, Metabolic Activation: NONE, Method: STANDARD PLATE) “inactive; negative”; (Test System: CHINESE HAMSTER V-79, Strain/Indicator: V-79/6-THIOGUANINE, Metabolic Activation: NONE, Method: FLASK ASSAY) “active; positive”; (Test System: UDS MOUSE EPIDERMIS IN VIVO/IN VITRO, Strain/Indicator: HOS:HR-1/THYMIDINE INCORPORATION, Metabolic Activation: NONE, Method: LIQUID SCINTILLATION) “active; positive”.
As to `COCCCN`, the mutagenic call by setting is: (Test System: AMES SALMONELLA TYPHIMURIUM, Strain/Indicator: TA98, Metabolic Activation: HAMSTER, LIVER, S-9, AROCLOR 1254, Method: STANDARD PLATE) “inactive; negative”; under setting [1], “inactive; negative”; (Test System: AMES SALMONELLA TYPHIMURIUM, Strain/Indicator: TA98, Metabolic Activation: RAT, LIVER, S-9, AROCLOR 1254, Method: STANDARD PLATE) “inactive; negative”; (Test System: AMES SALMONELLA TYPHIMURIUM, Strain/Indicator: TA100, Metabolic Activation: HAMSTER, LIVER, S-9, AROCLOR 1254, Method: STANDARD PLATE) “inactive; negative”; under setting [2], “inactive; negative”; under setting [3], “inactive; negative”. In addition, the mutagenic call runs as follows: (Test System: AMES SALMONELLA TYPHIMURIUM, Strain/Indicator: TA1535, Metabolic Activation: HAMSTER, LIVER, S-9, AROCLOR 1254, Method: STANDARD PLATE) “inactive; negative”; under setting [4], “inactive; negative”; (Test System: AMES SALMONELLA TYPHIMURIUM, Strain/Indicator: TA1535, Metabolic Activation: RAT, LIVER, S-9, AROCLOR 1254, Method: STANDARD PLATE) “inactive; negative”; (Test System: AMES SALMONELLA TYPHIMURIUM, Strain/Indicator: TA1537, Metabolic Activation: HAMSTER, LIVER, S-9, AROCLOR 1254, Method: STANDARD PLATE) “inactive; negative”; (Test System: AMES SALMONELLA TYPHIMURIUM, Strain/Indicator: TA1537, Metabolic Activation: NONE, Method: STANDARD PLATE) “inactive; negative”; (Test System: AMES SALMONELLA TYPHIMURIUM, Strain/Indicator: TA1537, Metabolic Activation: RAT, LIVER, S-9, AROCLOR 1254, Method: STANDARD PLATE) “inactive; negative”. The mutagenic call is “inactive; negative” (Test System: AMES SALMONELLA TYPHIMURIUM, Strain/Indicator: TA1538, Metabolic Activation: HAMSTER, LIVER, S-9, AROCLOR 1254, Method: STANDARD PLATE); “inactive; negative” (Test System: AMES SALMONELLA TYPHIMURIUM, Strain/Indicator: TA1538, Metabolic Activation: NONE, Method: STANDARD PLATE); “inactive; negative” (Test System: AMES SALMONELLA TYPHIMURIUM, Strain/Indicator: TA1538, Metabolic Activation: RAT, LIVER, S-9, AROCLOR 1254, Method: STANDARD PLATE); “inactive; negative” (Test System: Mouse lymphoma, Strain/Indicator: L5178Y (tk+/tk-), Metabolic Activation: None, Method: Suspension/plate); “inactive; negative” (Test System: Mouse lymphoma, Strain/Indicator: L5178Y (tk+/tk-), Metabolic Activation: Rat, Liver, S-9, Aroclor 1254, Method: Suspension/plate).
As for `Nc1ccc2c(N)c3ccccc3nc2c1`, the mutagenic call runs as follows: (Test System: AMES SALMONELLA TYPHIMURIUM, Strain/Indicator: TA1535, Metabolic Activation: NONE, Method: PREINCUBATION) “inactive; negative”; (Test System: AMES SALMONELLA TYPHIMURIUM, Strain/Indicator: TA1535, Metabolic Activation: RAT, LIVER, S-9, TETRACHLOROBIPHENYL, Method: PREINCUBATION) “inactive; negative”; (Test System: AMES SALMONELLA TYPHIMURIUM, Strain/Indicator: TA1537, Metabolic Activation: NONE, Method: PREINCUBATION) “active; positive”; (Test System: AMES SALMONELLA TYPHIMURIUM, Strain/Indicator: TA1537, Metabolic Activation: RAT, LIVER, S-9, TETRACHLOROBIPHENYL, Method: PREINCUBATION) “active; positive”; (Test System: AMES SALMONELLA TYPHIMURIUM, Strain/Indicator: TA1538, Metabolic Activation: NONE, Method: PREINCUBATION) “active; positive”; (Test System: AMES SALMONELLA TYPHIMURIUM, Strain/Indicator: TA1538, Metabolic Activation: RAT, LIVER, S-9, TETRACHLOROBIPHENYL, Method: PREINCUBATION) “active; positive”. In addition, the mutagenic call is, setting by setting: (Test System: AMES SALMONELLA TYPHIMURIUM, Strain/Indicator: TA1977, Metabolic Activation: NONE, Method: PREINCUBATION) “active; positive”; (Test System: AMES SALMONELLA TYPHIMURIUM, Strain/Indicator: TA1977, Metabolic Activation: RAT, LIVER, S-9, TETRACHLOROBIPHENYL, Method: PREINCUBATION) “active; positive”; (Test System: AMES SALMONELLA TYPHIMURIUM, Strain/Indicator: TA1978, Metabolic Activation: NONE, Method: PREINCUBATION) “inactive; negative”; (Test System: AMES SALMONELLA TYPHIMURIUM, Strain/Indicator: TA1978, Metabolic Activation: RAT, LIVER, S-9, TETRACHLOROBIPHENYL, Method: PREINCUBATION) “inactive; negative”.
For `Cc1ccc(S(=O)(=O)OC[C@H]2CO2)cc1`, the mutagenic call (Test System: AMES SALMONELLA TYPHIMURIUM, Strain/Indicator: TA100, Metabolic Activation: NONE, Method: PREINCUBATION) was “active; positive”; the mutagenic call under setting [2] was “active; positive”; the mutagenic call (Test System: AMES SALMONELLA TYPHIMURIUM, Strain/Indicator: TA100, Metabolic Activation: RAT, LIVER, S-9, PCB, Method: PREINCUBATION) is “active; positive”.
